The nature of data set [1]: Toxicity test (LD50). To be noted: mouse, in vivo; ip, ICR male mice. How it is done:
Using 4-weeks-old male ICR mice weighing 15-20 g, the value of LD50 was calculated by orally or intraperitoneally administering the prolinal derivatives to the mice and counting the deceased mice according to the conventional method.

Data set [2] relates to experimental amnestic rats. Description: passive avoidance response of rats (scopolamine-induced amnesia), retention test. In kind it is in vivo, male Wister SLC rat. The note with it: scopolamine 3 mg/kg i.p. How it is done:
The method of assay of the anti-amnestic action was carried out according to the method reported by A. Kubota et al. in Int. […] A passive avoidance chamber used in this test was surrounded with inside-visible transparent plastic plates and included an electrifiable grid floor (30 cm in length and 30 cm in width) capable of being derivered with an electric current of 1.7 mA in strength for electric foot shock and a platform (15 cm in length, 15 cm in width and 4 cm in height) placed at the right back corner thereof. A male Wister SLC rat (weighing 100-150 g) was placed in the passive avoidance chamber and, when he stepped down on the floor, the electric current was sent to the grid continuously until he went up on the platform. Repeating this test with another rat, the rats stayed on the platform for more than 15 seconds were taken out of the chamber, being regarded to have learned the situation. This electric shock was normally 2 or 3 times. To avoid any difference in the rats, those required 10 seconds for the first step-down and those stepped down on the floor at least 5 times were excluded. Among the learned or trained rats, the first control group of them were intraperitoneally administered with 0.5% CMC solution and the other groups of them were intraperitoneally administered with scopolamine hydrobromide in a dose of 3 mg/Kg to prepare experimental amnestic rats. The prolinal derivatives of the general formula to be tested were in each case intraperitoneally or orally administered to the rats in an amount shown in Table 1 or 2 one after completion of the learning. In each case, the polinal derivatives are used as having been dissolved or suspended in a 0.5% CMC solution.

The subject of data set [3] is proline-specific endopeptidase (post-proline cleaving enzyme). The note with it: cited from earlier work.

Residues, ends and D or L forms follow the SMILES beside them. *: point of attachment. Cbz = O=C(OCc1ccccc1)*; Boc = CC(C)(C)OC(=O)*; CH2Cl = ClC*

A word on the LD50: it is the dose at which mortality reaches 50%. `CC(=O)NCC(=O)N1CCC[C@H]1C=O` [Acetyl-glycyl-prolinal, acetyl-glycyl-prolinal] (Ac-Gly-Pro-aldehyde): the LD50 in data set [1] was greater than 1000 mg/kg. The entries for the “Retention Test Latency, 24 hr” value in data set [2] (1.3 mg/kg i.p. after training) and in data set [2] (1.3 mg/kg p.o. after training) were 274.9 s and 221.6 s, respectively. Besides, the “Retention Test Latency, 48 hr” value stood at 198.6 s in data set [2] (1.3 mg/kg i.p. after training) and 143.2 s in data set [2] (1.3 mg/kg p.o. after training).

On to `CC(=O)N1CCC[C@H]1C(=O)N1CCC[C@H]1C=O` [Acetyl-prolyl-prolinal, acetyl-prolyl-prolinal] (Ac-Pro-Pro-aldehyde), for which, in data set [1], the LD50 worked out at 767 mg/kg. The “Retention Test Latency, 24 hr” value in data set [2] (2.3 mg/kg i.p. after training) was greater than 300.0 s; in data set [2] (2.3 mg/kg p.o. after training), 204.2 s. The “Retention Test Latency, 48 hr” value in data set [2] (2.3 mg/kg i.p. after training) was greater than 300.0 s; in data set [2] (2.3 mg/kg p.o. after training) it was 177.4 s.

As for `C[C@H](NC(=O)OCc1ccccc1)C(=O)N1CCC[C@H]1C=O` [N--Benzyloxycarbonyl-alanyl-prolinal, N-benzyloxycarbonyl-alanyl-prolinal] (Cbz-Ala-Pro-aldehyde), the LD50 in data set [1] was determined as 954 mg/kg. In data set [2] (2.0 mg/kg i.p. after training), the “Retention Test Latency, 24 hr” value came to 189.0 s and the “Retention Test Latency, 48 hr” value was 203.4 s. Besides, in data set [2] (2.0 mg/kg p.o. after training), the “Retention Test Latency, 24 hr” value amounted to 165.4 s and the “Retention Test Latency, 48 hr” value amounted to 155.2 s.

On to `O=C[C@@H]1CCCN1C(=O)CNC(=O)OCc1ccccc1` [N--Benzyloxycarbonyl-glycyl-prolinal, N-benzyloxycarbonyl-glycyl-prolinal] (Cbz-Gly-Pro-aldehyde), for which, in data set [1], the LD50 was greater than 1000 mg/kg. In addition, in data set [2] (1.9 mg/kg i.p. after training), the “Retention Test Latency, 24 hr” value is greater than 300.0 s and the “Retention Test Latency, 48 hr” value is greater than 300.0 s. For the same compound, in data set [2] (1.9 mg/kg p.o. after training), the “Retention Test Latency, 24 hr” value came to 230.4 s and the “Retention Test Latency, 48 hr” value stood at 175.5 s.

The compound `CC(C)C[C@H](NC(=O)OCc1ccccc1)C(=O)N1CCC[C@H]1C=O` [N--Benzyloxycarbonyl-leucyl-prolinal, N-benzyloxycarbonyl-leucyl-prolinal] (Cbz-Leu-Pro-aldehyde) returned an LD50 in data set [1] greater than 1000 mg/kg. Also, in data set [2] (3.5 mg/kg i.p. after training), the “Retention Test Latency, 24 hr” value is greater than 300.0 s and the “Retention Test Latency, 48 hr” value is greater than 300.0 s. Besides, in data set [2] (3.5 mg/kg p.o. after training), the “Retention Test Latency, 24 hr” value stood at 281.6 s and the “Retention Test Latency, 48 hr” value came out at 219.5 s.

As to `O=C[C@@H]1CCCN1C(=O)[C@@H]1CCCN1C(=O)OCc1ccccc1` [N--Benzyloxycarbonyl-prolyl-prolinal, N-benzyloxycarbonyl-prolyl-prolinal] (Cbz-Pro-Pro-aldehyde), in data set [1], the LD50 is greater than 1000 mg/kg.

`CC(C)[C@H](NC(=O)OCc1ccccc1)C(=O)N1CCC[C@H]1C=O` [N--Benzyloxycarbonyl-valyl-prolinal, N-benzyloxycarbonyl-valyl-prolinal] (Cbz-Val-Pro-aldehyde) showed an LD50 in data set [1] of 825 mg/kg. In data set [2] (2.2 mg/kg i.p. after training), the “Retention Test Latency, 24 hr” value was greater than 300.0 s and the “Retention Test Latency, 48 hr” value is greater than 300.0 s. For the same compound, in data set [2] (2.2 mg/kg p.o. after training), the “Retention Test Latency, 24 hr” value is 254.8 s and the “Retention Test Latency, 48 hr” value came out at 210.5 s.

For `O=C(NCC(=O)N1CCC[C@H]1C(=O)CCl)OCc1ccccc1` [N-benzyloxycarbonylglycyl-L-prolyl-chloromethane] (Cbz-Gly-Pro-CH2Cl), the “inhibitory action to the endopeptidase” value in data set [3] is “strong inhibitory action”.

In data set [1], `C[C@H](NC(=O)OC(C)(C)C)C(=O)N1CCC[C@H]1C=O` [t-Butyloxycarbonyl-alanyl-prolinal, t-butyloxycarbonyl-alanyl-prolinal] (Boc-Ala-Pro-aldehyde) gave an LD50 of 796 mg/kg. In data set [2] (1.8 mg/kg i.p. after training), the “Retention Test Latency, 24 hr” value was found to be 293.5 s and the “Retention Test Latency, 48 hr” value stood at 250.4 s. Also, in data set [2] (1.8 mg/kg p.o. after training), the “Retention Test Latency, 24 hr” value was 239.8 s and the “Retention Test Latency, 48 hr” value stood at 226.7 s.

With `CC(C)(C)OC(=O)N[C@@H](Cc1ccccc1)C(=O)N1CCC[C@H]1C=O` [t-Butyloxycarbonyl-phenylalanyl-prolinal, t-butyloxycarbonyl-phenylalanyl-prolinal] (Boc-Phe-Pro-aldehyde), the LD50 in data set [1] is greater than 1000 mg/kg. In addition, in data set [2] (3.0 mg/kg i.p. after training), the “Retention Test Latency, 24 hr” value was greater than 300.0 s and the “Retention Test Latency, 48 hr” value was found to be 264.3 s. In addition, in data set [2] (3.0 mg/kg p.o. after training), the “Retention Test Latency, 24 hr” value is greater than 300.0 s and the “Retention Test Latency, 48 hr” value worked out at 250.2 s.

With `CC(C)(C)OC(=O)N[C@@H](CO)C(=O)N1CCC[C@H]1C=O` [t-Butyloxycarbonyl-seryl-prolinal, t-butyloxycarbonyl-seryl-prolinal] (Boc-Ser-Pro-aldehyde), the LD50 in data set [1] is greater than 1000 mg/kg. Also, in data set [2] (2.9 mg/kg i.p. after training), the “Retention Test Latency, 24 hr” value was greater than 300.0 s and the “Retention Test Latency, 48 hr” value is greater than 300.0 s. Also, in data set [2] (2.9 mg/kg p.o. after training), the “Retention Test Latency, 24 hr” value was found to be 262.9 s and the “Retention Test Latency, 48 hr” value was found to be 185.2 s.

Compound `CC(C)(C)OC(=O)N[C@@H](Cc1ccc(O)cc1)C(=O)N1CCC[C@H]1C=O` [t-Butyloxycarbonyl-tyrosyl-prolinal, t-butyloxycarbonyl-tyrosyl-prolinal] (Boc-Tyr-Pro-aldehyde) had an LD50 in data set [1] of 933 mg/kg. In addition, the “Retention Test Latency, 24 hr” value stood at 250.8 s in data set [2] (3.6 mg/kg i.p. after training) and 180.5 s in data set [2] (3.6 mg/kg p.o. after training). Further, the “Retention Test Latency, 48 hr” value worked out at 206.9 s in data set [2] (3.6 mg/kg i.p. after training) and 192.1 s in data set [2] (3.6 mg/kg p.o. after training).

The values above are taken from patent publication US4687778A, “Anti-amnestic agent” (Kabushiki Kaisha Yakult Honsha, priority 1984, dated 1987).
